Laboratory results published in US11472792B2, “Herbicidal mixtures” (SYNGENTA CROP PROTECTION AG, priority 2019, dated 2022).

How the values were obtained:
Format in all cases: in vivo
[1] = tested on: Echinochloa crus-galli (ECHCG); assay: Herbicidal efficacy, post-emergence application (glasshouse); details: evaluated visually after 13 days, 100=total damage, 0=no damage; for pest or weed control at 250 g/ha: Echinochloa crus-galli, 312 h, read-out: percentage phytotoxicity to the plant, ECHCG
Description: (§1) Seeds of a variety of test species [Ipomoea hederacea (IPOHE); Zea mays (ZEAMX); Echinochloa crus-galli (ECHCG); Setaria faberi (SETFA); Abutilon theophrasti (ABUTH); Amaranthus retroflexus (AMARE)] were sown in standard sterilised soil in pots. After cultivation for one day (pre-emergence) or after 8 days cultivation (post-emergence) under controlled conditions in a glasshouse (at 24/16° C., day/night; 14 hours light; 65% humidity), the plants were sprayed with an aqueous spray solution derived from the formulation of the technical active ingredient in acetone/water (50:50) solution containing 0.5% Tween 20 (polyoxyethelyene sorbitan monolaurate, CAS RN 9005-64-5), subsequently diluted in water, and sprayed to give the stated application rate.
(§2) The test plants were then grown under controlled conditions in a glasshouse (at 24/16° C., day/night; 14 hours light; 65% humidity) and watered twice daily.
(§3) After 13 days for pre and post-emergence, the test was evaluated visually for percentage phytotoxicity to the plant (where 100=total damage to plant; 0=no damage to plant).

[2] = tested on: Ipomoea hederacea (IPOHE); assay: as above; details: evaluated visually after 13 days, 100=total damage, 0=no damage; for pest or weed control at 250 g/ha: Ipomoea hederacea, 312 h, read-out: percentage phytotoxicity to the plant, IPOHE
Description: as §1, §2, §3

[3] = tested on: Zea mays (ZEAMX); assay: as above; details: evaluated visually after 13 days, 100=total damage, 0=no damage; for plant injury at 250 g/ha: Zea mays, 312 h, read-out: percentage phytotoxicity to the plant, ZEAMX
Description: as §1, §2, §3

[4] = tested on: Amaranthus retroflexus (AMARE); assay: as above; details: evaluated visually after 13 days, 100=total damage, 0=no damage; for pest or weed control at 250 g/ha: Amaranthus retroflexus, 312 h, read-out: percentage phytotoxicity to the plant, AMARE
Description: as §1, §2, §3

[5] = tested on: Abutilon theophrasti (ABUTH); assay: as above; details: evaluated visually after 13 days, 100=total damage, 0=no damage; for pest or weed control at 250 g/ha: Abutilon theophrasti, 312 h, read-out: percentage phytotoxicity to the plant, ABUTH
Description: as §1, §2, §3

[6] = tested on: Setaria faberi (SETFA); assay: as above; details: evaluated visually after 13 days, 100=total damage, 0=no damage; for pest or weed control at 250 g/ha: Setaria faberi, 312 h, read-out: percentage phytotoxicity to the plant, SETFA
Description: as §1, §2, §3

[7] = tested on: Echinochloa crus-galli (ECHCG); assay: Herbicidal efficacy, pre-emergence application (glasshouse); details: evaluated visually after 13 days, 100=total damage, 0=no damage; for pest or weed control at 250 g/ha: Echinochloa crus-galli, 312 h, read-out: percentage phytotoxicity to the plant, ECHCG
Description: as §1, §2, §3

[8] = tested on: Ipomoea hederacea (IPOHE); assay: as above; details: evaluated visually after 13 days, 100=total damage, 0=no damage; for pest or weed control at 250 g/ha: Ipomoea hederacea, 312 h, read-out: percentage phytotoxicity to the plant, IPOHE
Description: as §1, §2, §3

[9] = tested on: Zea mays (ZEAMX); assay: as above; details: evaluated visually after 13 days, 100=total damage, 0=no damage; for plant injury at 250 g/ha: Zea mays, 312 h, read-out: percentage phytotoxicity to the plant, ZEAMX
Description: as §1, §2, §3

[10] = tested on: Amaranthus retroflexus (AMARE); assay: as above; details: evaluated visually after 13 days, 100=total damage, 0=no damage; for pest or weed control at 250 g/ha: Amaranthus retroflexus, 312 h, read-out: percentage phytotoxicity to the plant, AMARE
Description: as §1, §2, §3

[11] = tested on: Abutilon theophrasti (ABUTH); assay: as above; details: evaluated visually after 13 days, 100=total damage, 0=no damage; for pest or weed control at 250 g/ha: Abutilon theophrasti, 312 h, read-out: percentage phytotoxicity to the plant, ABUTH
Description: as §1, §2, §3

[12] = tested on: Setaria faberi (SETFA); assay: as above; details: evaluated visually after 13 days, 100=total damage, 0=no damage; for pest or weed control at 250 g/ha: Setaria faberi, 312 h, read-out: percentage phytotoxicity to the plant, SETFA
Description: as §1, §2, §3

Compound | pest or weed control at 250 g/ha [1] [%] | pest or weed control at 250 g/ha [2] [%] | plant injury at 250 g/ha [3] [%] | pest or weed control at 250 g/ha [4] [%] | pest or weed control at 250 g/ha [5] [%] | pest or weed control at 250 g/ha [6] [%] | pest or weed control at 250 g/ha [7] [%] | pest or weed control at 250 g/ha [8] [%] | plant injury at 250 g/ha [9] [%] | pest or weed control at 250 g/ha [10] [%] | pest or weed control at 250 g/ha [11] [%] | pest or weed control at 250 g/ha [12] [%] | further results
CN1C[C@H](c2cc(C(F)(F)F)n(C)n2)[C@@H](C(=O)Nc2ccc(F)nc2F)C1=O [Compound 2.8, (3S,4R)-N-(2,6-difluoro-3-pyridyl)-1-methyl-4-[1-methyl-5-(trifluoromethyl)pyrazol-3-yl]-2-oxo-pyrrolidine-3-carboxamide] | 80 | 30 | 80 | 0 | 0 | 80 | 90 | 0 | 40 | 20 | 0 | 90 | –
CN1C[C@H](c2cc(C(F)(F)F)n(C)n2)[C@@H](C(=O)Nc2ccc(F)cc2F)C1=O [Compound 2.3, (3S,4R)-N-(2,4-difluorophenyl)-1-methyl-4-[1-methyl-5-(trifluoromethyl)pyrazol-3-yl]-2-oxo-pyrrolidine-3-carboxamide] | 70 | 10 | 60 | 10 | 60 | 70 | 90 | 10 | 60 | 50 | 70 | 90 | –
CN1C[C@H](c2cc(C(F)(F)F)n(C)n2)[C@@H](C(=O)Nc2cccc(F)c2F)C1=O [Compound 2.1, (3S,4R)-N-(2,3-difluorophenyl)-1-methyl-4-[1-methyl-5-(trifluoromethyl)pyrazol-3-yl]-2-oxo-pyrrolidine-3-carboxamide] | 90 | 0 | 80 | 20 | 0 | 90 | 100 | 30 | 90 | 70 | 10 | 90 | –
CN1C[C@H](c2cc(C(F)(F)F)n(C)n2)[C@@H](C(=O)Nc2cccc(F)c2OC(F)F)C1=O [Compound 2.10, (3S,4R)-N-[2-(difluoromethoxy)-3-fluoro-phenyl]-1-methyl-4-[1-methyl-5-(trifluoromethyl)pyrazol-3-yl]-2-oxo-pyrrolidine-3-carboxamide] | 80 | 30 | 80 | 0 | 0 | 80 | 90 | 20 | 40 | 0 | 0 | 90 | –
(3S,4R)-N-[2-(1,1-difluoroethyl)-3-fluoro-phenyl]-1-methyl-4-[1-methyl-5-(trifluoromethyl)pyrazol-3-yl]-2-oxo-pyrrolidine-3-carboxamide [Compound 2.12] | – | – | – | – | – | – | – | – | – | – | – | – | percentage phytotoxicity to the plant, ECHCG ([1]; 250 g/ha): 90%; percentage phytotoxicity to the plant, IPOHE ([2]; 250 g/ha): 50%; percentage phytotoxicity to the plant, ZEAMX ([3]; 250 g/ha): 80%; percentage phytotoxicity to the plant, AMARE ([4]; 250 g/ha): 0%; percentage phytotoxicity to the plant, ABUTH ([5]; 250 g/ha): 0%; percentage phytotoxicity to the plant, SETFA ([6]; 250 g/ha): 90%; percentage phytotoxicity to the plant, ECHCG ([7]; 250 g/ha): 90%; percentage phytotoxicity to the plant, IPOHE ([8]; 250 g/ha): 70%; percentage phytotoxicity to the plant, ZEAMX ([9]; 250 g/ha): 90%; percentage phytotoxicity to the plant, AMARE ([10]; 250 g/ha): 0%; percentage phytotoxicity to the plant, ABUTH ([11]; 250 g/ha): 0%; percentage phytotoxicity to the plant, SETFA ([12]; 250 g/ha): 90%
CCc1ccccc1NC(=O)[C@H]1C(=O)N(C)C[C@@H]1c1cc(C(F)(F)F)n(C)n1 [Compound 2.11, (3S,4R)-N-(2-ethylphenyl)-1-methyl-4-[1-methyl-5-(trifluoromethyl)pyrazol-3-yl]-2-oxo-pyrrolidine-3-carboxamide] | 80 | 0 | 0 | 20 | 0 | 80 | 90 | 0 | 20 | 70 | 0 | 90 | –
CN1C[C@H](c2cnn(C)c2C(F)(F)F)[C@@H](C(=O)Nc2cccc(F)c2F)C1=O [Compound 2.15, (3S,4S)-N-(2,3-difluorophenyl)-1-methyl-4-[1-methyl-5-(trifluoromethyl)pyrazol-4-yl]-2-oxo-pyrrolidine-3-carboxamide] | 80 | 40 | 30 | 0 | 0 | 80 | 100 | 20 | 40 | 0 | 40 | 100 | –
CN1C[C@H](c2cc(C(F)(F)F)n(C)n2)[C@@H](C(=O)Nc2ccccc2F)C1=O [Compound 2.2, (3S,4R)-N-(2-fluorophenyl)-1-methyl-4-[1-methyl-5-(trifluoromethyl)pyrazol-3-yl]-2-oxo-pyrrolidine-3-carboxamide] | 90 | 0 | 50 | 0 | 0 | 90 | 90 | 0 | 20 | 20 | 0 | 90 | –
CN1C[C@H](c2cc(C(F)(F)F)n(C)n2)[C@@H](C(=O)Nc2cccc(F)n2)C1=O [Compound 2.9, (3S,4R)-N-(6-fluoro-2-pyridyl)-1-methyl-4-[1-methyl-5-(trifluoromethyl)pyrazol-3-yl]-2-oxo-pyrrolidine-3-carboxamide] | 80 | 50 | 40 | 0 | 0 | 80 | 100 | 40 | 80 | 0 | 0 | 90 | –
COc1c(F)cccc1NC(=O)[C@H]1C(=O)N(C)C[C@@H]1c1cc(C(F)(F)F)n(C)n1 [Compound 2.6, (3S,4R)-N-(3-fluoro-2-methoxy-phenyl)-1-methyl-4-[1-methyl-5-(trifluoromethyl)pyrazol-3-yl]-2-oxo-pyrrolidine-3-carboxamide] | 70 | 50 | 80 | 0 | 0 | 70 | 90 | 20 | 80 | 0 | 0 | 90 | –
CN1C[C@H](c2cc(C(F)(F)F)n(C)n2)[C@@H](C(=O)Nc2ccc(F)c(F)c2F)C1=O [Compound 2.7, (3S,4R)-1-methyl-4-[1-methyl-5-(trifluoromethyl)pyrazol-3-yl]-2-oxo-N-(2,3,4-trifluorophenyl)pyrrolidine-3-carboxamide] | 80 | 0 | 80 | 50 | 0 | 80 | 100 | 20 | 90 | 20 | 10 | 90 | –
